Test [1] has as its target T1, SARS-CoV-2 NSP3 Mac1 (Severe acute respiratory syndrome coronavirus 2, UniProt P0DTD1). The test is described as follows: biochemical. In kind it is binding. The conditions noted are these: for pKi: read-out: Ki***.
In test [2] the target is T1, SARS-CoV-2 NSP3 Mac1. In kind it is binding. The conditions noted are these: for 1-BDC (PanDDA): 1 minus background density correction; for 1-BDC (PanDDA) / Refined occupancy: crystal soaking of Mac1; for Refined occupancy: ligand occupancy after refinement (phenix.refine).
Test [3] concerns SARS-CoV-2 NSP3 Mac1. The test is described as follows: Overall hit call (binding in crystallographic soaking or the HTRF-based binding assay). The source says: Supplement pnas.2212931120.sd01.xlsx, sheet "Compound Summary" | column: HIT*
[4] abbreviates: HTRF ADPr-conjugated peptide displacement, read-out: IC50.
Where [5] appears, read: HTRF ADPr-peptide displacement from SARS-CoV-2 Mac1, read-out: IC50.
[6] abbreviates: PanDDA 1-BDC of the event, compound stock 100 mM, Echo dispense volume 80 nl.
Where [7] appears, read: PanDDA event map 1-BDC, crystal soak, Compound_concentration 100 mM, PanDDA run dmso_34 or nohits_35 per dataset.
Setting [8] is: PanDDA event map, crystal soak, Compound_concentration 100 mM, Echo_dispense_volume 40 nl.
Where [9] appears, read: crystal soak, Compound_concentration 100 mM, Echo dispense 40 nl, PanDDA run dmso_34 or nohits_35 per dataset.
The mark [10] stands for this setting: crystal soak, Compound_concentration 100 mM, Echo_dispense_volume 40 nl, PanDDA run (background map) dmso_34, nohits_35 or nohits_62.
[11] abbreviates: crystal soak, compound stock 100 mM, Echo dispense volume 80 nl.
Where [12] appears, read: ligand modeled, crystal soak, Compound_concentration 100 mM, Echo_dispense_volume 40 nl.
[13] abbreviates: PanDDA 1-BDC of the event, compound stock 100 mM, Echo dispense volume 40 nl.
The mark [14] stands for this setting: crystal soak, compound stock 100 mM, Echo dispense volume 40 nl.
[15] abbreviates: ligand modeled in structure, compound stock 100 mM, Echo dispense volume 80 nl.

pIC50, pKi: −log10 of the molar value. “And” between values parts separate entries of the source, which are not always exact repeats. Identical values can stand only once. Like-named read-outs stand apart in the source and are kept apart here.

On to `O=C(O)C1CN(c2ncnc3[nH]c4cc(F)ccc4c23)CC12CCC2` (stereo not drawn) [LL123_0020], for which the values for the pIC50 at SARS-CoV-2 NSP3 Mac1 [1] (setting [4]) and on SARS-CoV-2 NSP3 Mac1 [1] (setting [5]) were 4.87 and 4.85, respectively. Further, the pKi on SARS-CoV-2 NSP3 Mac1 [1] was 4.93. Besides, the 1-BDC at SARS-CoV-2 NSP3 Mac1 [2] (setting [6]) was 0.12 and 0.17; on SARS-CoV-2 NSP3 Mac1 [2] (setting [7]) it was 0.13; at SARS-CoV-2 NSP3 Mac1 [2] (setting [8]) it was 0.17. Further, the “1-BDC (PanDDA)” value on SARS-CoV-2 NSP3 Mac1 [2] (PanDDA event map) worked out at 0.17. In addition, the “PanDDA hit?” value on SARS-CoV-2 NSP3 Mac1 [2] (setting [9]), on SARS-CoV-2 NSP3 Mac1 [2] (setting [10]) and on SARS-CoV-2 NSP3 Mac1 [2] (setting [11]) was “TRUE” each time. Further, on SARS-CoV-2 NSP3 Mac1 [2] (setting [12]), the “Modeled?” value is “TRUE”. The compound also gave a Refined occupancy at SARS-CoV-2 NSP3 Mac1 [2] of 34. For the same compound, the “HIT*” value in the test with SARS-CoV-2 NSP3 Mac1 [3] is “Y”.

For the compound `CCC(=O)Nc1nc(C)c(S(=O)(=O)Nc2cccc(C#N)c2)s1` [Z0611], the pIC50 at SARS-CoV-2 NSP3 Mac1 [1] (setting [4]) was 3.84. Further, on SARS-CoV-2 NSP3 Mac1 [1], the pKi is 3.91. Further, the “HIT*” value in the test with SARS-CoV-2 NSP3 Mac1 [3] was “Y”.

Take `CN(Cc1ccccn1)c1ncnc2[nH]c3cc(F)ccc3c12` [LRM-0028]: the 1-BDC is 0.14 at SARS-CoV-2 NSP3 Mac1 [2] (setting [13]) and 0.15 at SARS-CoV-2 NSP3 Mac1 [2] (setting [6]). The “1-BDC (PanDDA)” value at SARS-CoV-2 NSP3 Mac1 [2] (PanDDA event map) turned out to be 0.15. Also, the “PanDDA hit?” value at SARS-CoV-2 NSP3 Mac1 [2] (setting [14]) and on SARS-CoV-2 NSP3 Mac1 [2] (setting [11]) was “TRUE” each time. In addition, the “Modeled?” value at SARS-CoV-2 NSP3 Mac1 [2] (setting [15]) was “TRUE”. This compound showed a Refined occupancy on SARS-CoV-2 NSP3 Mac1 [2] of 30. Moreover, the “HIT*” value in the test on SARS-CoV-2 NSP3 Mac1 [3] is listed as “Y”.

Consider `Nc1nc(N2CC3(CCC3)C(F)(C(=O)O)C2)c2c(n1)[nH]c1cc(F)ccc12` (stereo not drawn) [LL123_0016], for which, on SARS-CoV-2 NSP3 Mac1 [1] (setting [4]), the pIC50 was 4.61. On SARS-CoV-2 NSP3 Mac1 [1], the negative logarithm of the Ki (pKi) was 4.67. The 1-BDC was found to be 0.17 at SARS-CoV-2 NSP3 Mac1 [2] (PanDDA event map background density correction, crystal soak, compound concentration 100 mM) and 0.15 at SARS-CoV-2 NSP3 Mac1 [2] (setting [8]). Moreover, at SARS-CoV-2 NSP3 Mac1 [2] (PanDDA event map), the “1-BDC (PanDDA)” value was 0.17. In addition, the “PanDDA hit?” value on SARS-CoV-2 NSP3 Mac1 [2] (setting [10]) is “TRUE”. Besides, the “Modeled?” value at SARS-CoV-2 NSP3 Mac1 [2] (ligand modeled in the crystal structure, crystal soak, compound concentration 100 mM) was “TRUE”. Further, the Refined occupancy at SARS-CoV-2 NSP3 Mac1 [2] is 34. Also, the “HIT*” value in the test on SARS-CoV-2 NSP3 Mac1 [3] is given as “Y”.

Take `O=C(O)CC(NC(=O)c1cc(F)cc2[nH]cnc12)c1ccc(Br)cc1` (stereo not drawn) [Z3722]: at SARS-CoV-2 NSP3 Mac1 [1] (setting [4]), the pIC50 is 4.58. Also, the negative logarithm of the Ki (pKi) at SARS-CoV-2 NSP3 Mac1 [1] is 4.64. Moreover, the “HIT*” value in the test with SARS-CoV-2 NSP3 Mac1 [3] was “Y”.

For `CN(c1ncnc2[nH]c3cc(F)ccc3c12)C1CCCS(=O)(=O)C1` (stereo not drawn) [LRM-0010], the 1-BDC on SARS-CoV-2 NSP3 Mac1 [2] (setting [6]) is reported as 0.06. Moreover, on SARS-CoV-2 NSP3 Mac1 [2] (PanDDA event map), the “1-BDC (PanDDA)” value is recorded as 0.06. Further, the “PanDDA hit?” value at SARS-CoV-2 NSP3 Mac1 [2] (setting [11]) is “TRUE”. In addition, the “Modeled?” value at SARS-CoV-2 NSP3 Mac1 [2] (setting [15]) is on record as “TRUE”. This compound gave a Refined occupancy on SARS-CoV-2 NSP3 Mac1 [2] of 12. Also, in the test on SARS-CoV-2 NSP3 Mac1 [3], the “HIT*” value is “Y”.

With `O[C@H]1CCCC[C@H]1Nc1ncnc2[nH]ccc12` (relative stereo) [SRH-0015], the pIC50 on SARS-CoV-2 NSP3 Mac1 [1] (IC50, HTRF ADPr-peptide displacement from SARS-CoV-2 Mac1) is 3.88. The compound further displayed an IC50 at SARS-CoV-2 NSP3 Mac1 [1] (IC50 [µM], HTRF ADPr-conjugated peptide displacement) of 132 µM. At SARS-CoV-2 NSP3 Mac1 [1] (Ki*** [µM]), this compound displayed an inhibition constant (Ki) of 115 µM. Moreover, at SARS-CoV-2 NSP3 Mac1 [2] (setting [7]), the 1-BDC stood at 0.13. The “1-BDC (PanDDA)” value at SARS-CoV-2 NSP3 Mac1 [2] (PanDDA event map) was 0.13. In addition, the “PanDDA hit?” value on SARS-CoV-2 NSP3 Mac1 [2] (setting [9]) was “TRUE”. Also, the “Modeled?” value at SARS-CoV-2 NSP3 Mac1 [2] (ligand modeled in this dataset, crystal soak, Compound_concentration 100 mM) is recorded as “TRUE”. Further, the Refined occupancy on SARS-CoV-2 NSP3 Mac1 [2] is 26. In the test on SARS-CoV-2 NSP3 Mac1 [3], the “HIT*” value is “Y”.

Regarding `O=C(O)C1(F)CN(c2ncnc3[nH]c4cc(F)ccc4c23)CC12COC2` (stereo not drawn) [LL123_0031], the pIC50 was 4.63 at SARS-CoV-2 NSP3 Mac1 [1] (setting [4]) and 4.64 at SARS-CoV-2 NSP3 Mac1 [1] (setting [5]). The pKi on SARS-CoV-2 NSP3 Mac1 [1] was 4.69. At SARS-CoV-2 NSP3 Mac1 [2] (setting [6]), this compound registered a 1-BDC of 0.08. Besides, at SARS-CoV-2 NSP3 Mac1 [2] (PanDDA event map), the “1-BDC (PanDDA)” value is listed as 0.08. Further, the “PanDDA hit?” value at SARS-CoV-2 NSP3 Mac1 [2] (setting [11]) is recorded as “TRUE”. For the same compound, on SARS-CoV-2 NSP3 Mac1 [2] (setting [15]), the “Modeled?” value is “TRUE”. Further, on SARS-CoV-2 NSP3 Mac1 [2], the Refined occupancy was 16. Besides, in the test on SARS-CoV-2 NSP3 Mac1 [3], the “HIT*” value is listed as “Y”.

As for `O=S1(=O)CC(CNc2ncnc3[nH]c4cc(F)ccc4c23)C1` [LRH-0005], the 1-BDC on SARS-CoV-2 NSP3 Mac1 [2] (setting [13]) and at SARS-CoV-2 NSP3 Mac1 [2] (setting [6]) was 0.1 in each case. Further, the “1-BDC (PanDDA)” value on SARS-CoV-2 NSP3 Mac1 [2] (PanDDA event map) was 0.1. Moreover, the “PanDDA hit?” value on SARS-CoV-2 NSP3 Mac1 [2] (setting [14]) and on SARS-CoV-2 NSP3 Mac1 [2] (setting [11]) was “TRUE” each time. At SARS-CoV-2 NSP3 Mac1 [2] (setting [15]), the “Modeled?” value is given as “TRUE”. For the same compound, the Refined occupancy on SARS-CoV-2 NSP3 Mac1 [2] is given as 20. Further, the “HIT*” value in the test with SARS-CoV-2 NSP3 Mac1 [3] is given as “Y”.

For `COC(=O)CC1CN(c2ncnc3[nH]c4cc(F)ccc4c23)CCO1` (stereo not drawn) [LL114_0040], the 1-BDC was 0.08 at SARS-CoV-2 NSP3 Mac1 [2] (setting [6]), 0.11 on SARS-CoV-2 NSP3 Mac1 [2] (setting [7]) and 0.08 at SARS-CoV-2 NSP3 Mac1 [2] (setting [8]). In addition, the “1-BDC (PanDDA)” value on SARS-CoV-2 NSP3 Mac1 [2] (PanDDA event map) came to 0.08. In addition, the “PanDDA hit?” value on SARS-CoV-2 NSP3 Mac1 [2] (setting [9]), at SARS-CoV-2 NSP3 Mac1 [2] (setting [10]) and at SARS-CoV-2 NSP3 Mac1 [2] (setting [11]) was “TRUE” each time. Also, on SARS-CoV-2 NSP3 Mac1 [2] (setting [12]), the “Modeled?” value is recorded as “TRUE”. The compound further returned a Refined occupancy on SARS-CoV-2 NSP3 Mac1 [2] of 16. Besides, the “HIT*” value with SARS-CoV-2 NSP3 Mac1 [3] is on record as “Y”.

In the case of `[O-][n+]1cccc(Nc2ncnc3[nH]c4cc(F)ccc4c23)c1` [LRH-0031], the 1-BDC amounted to 0.18 at SARS-CoV-2 NSP3 Mac1 [2] (setting [13]) and 0.17 on SARS-CoV-2 NSP3 Mac1 [2] (setting [6]). In addition, the “1-BDC (PanDDA)” value at SARS-CoV-2 NSP3 Mac1 [2] (PanDDA event map) was found to be 0.17. The “PanDDA hit?” value on SARS-CoV-2 NSP3 Mac1 [2] (setting [14]) and at SARS-CoV-2 NSP3 Mac1 [2] (setting [11]) was “TRUE” each time. Moreover, the “Modeled?” value at SARS-CoV-2 NSP3 Mac1 [2] (setting [15]) is listed as “TRUE”. This compound also showed a Refined occupancy at SARS-CoV-2 NSP3 Mac1 [2] of 34. Moreover, on SARS-CoV-2 NSP3 Mac1 [2] (what was observed in density instead of the vendor structure), the “Comment (ligand modelled in the crystal structure)” value is on record as “pyrimido-indole core only”. Besides, the “HIT*” value in the test with SARS-CoV-2 NSP3 Mac1 [3] is “Y”.

For the origin of these results see PMC9926234, “Iterative computational design and crystallographic screening identifies potent inhibitors targeting the Nsp3 macrodomain of SARS-CoV-2” (Proceedings of the National Academy of Sciences of the …, 2023).
